Results reported in paper PMC8618934, “Synthesis, Crystal Structure, and Biological Evaluation of Novel 5-Hydroxymethylpyrimidines” (Materials, 2021).
In brackets after ≈: the same amount, converted by molar mass.

Experiments:
[1] = Neutral red uptake assay, viability of normal RPTEC cells; format: cell-based; details: human, 72 h treatment, vs control with 1% DMSO = 100%, read-out: Viability of RPTEC cell line
Protocol: For cytotoxicity assays, the following cell lines were used: human renal proximal tubule epithelial cells (RPTEC-MTOX1030), epithelioid cervix carcinoma (HeLa-93021013), colon adenocarcinoma (Caco-2-86010202), hepatocarcinoma (HepaRG-MTOX1010), gastric adenocarcinoma (AGS-89090402), and glioblastoma (A172-88062428) cells were cultured in appropriate media according to the European Collection of Authenticated Cell Cultures (ECACC) recommendation. To all media (except for RPTEC), 2.5 µg mL^−1 amphotericin B, 100 U mL^−1 penicillin, and 100 µg mL^−1 streptomycin were added. In addition, the RPTEC cell line was cultured in media with 30 μg mL^−1 gentamicin and 15 ng mL^−1 amphotericin B. Cell cultures were incubated at 37 °C in a humidified atmosphere with 5% CO2 for at least three passages until performing experiments. All cell lines were grown in monolayers; thus, detachment with 0.25% trypsin solution was required for further assays.
The cells were put in 96-well plates (1 × 10^5 cells per mL) of appropriate culture medium (100 µL per well). Before a general experiment, cells were attached for 24 h and then treated with various concentrations (500, 250, 100, and 10 µM) of pyrimidine derivatives and subsequently grown in 200 µL medium volume. […]. The cells were incubated for 24, 48, and 72 h at 37 °C in a humidified 5% CO2/95% air incubator. The neutral red uptake assay was performed according to Repetto et al.. This method uses the ability of the living cells to accumulate dye in their lysosomes. Briefly, at the end of each incubation time the cells were treated with neutral red solution (40 µg mL^−1) for 2 h at 37 °C. Afterwards, the cells were washed with PBS, and the incorporated dye was solubilized with the extraction solution (50% ethanol, 49% H2O, 1% glacial acetic acid). The plates were gently shaken for 30 min at 37 °C. Finally, the absorbance was measured at 540 nm using a Thermo Scientific™ Multiskan™ GO Microplate Spectrophotometer (Thermo Fisher).
The viability tests were conducted in quadruple wells (n = 4) for each condition. Values are presented as mean ± standard deviation (SD). Significant differences were calculated using one-way ANOVA, followed by post hoc comparison, and the half-maximal inhibitory concentration (IC50) was obtained by nonlinear regression using GraphPad Prism 9.1 for Windows, GraphPad Software, La Jolla, California, USA, www.graphpad.com. A p-value < 0.05 was considered statistically significant. All results were compared with the control with 1% DMSO, which was considered to be 100%.

Acinetobacter baumannii = assay: Antimicrobial activity, broth microdilution MIC; format: cell-based; details: tested 256 to 0.5 µg mL^−1, 24 h, '-' not defined, no MIC in tested range
HepaRG = assay: Neutral red uptake assay, HepaRG; format: cell-based, human; details: 72 h incubation
Protocol: (§1) To all media (except for RPTEC), 2.5 µg mL^−1 amphotericin B, 100 U mL^−1 penicillin, and 100 µg mL^−1 streptomycin were added.
(§2) The cells were put in 96-well plates (1 × 10^5 cells per mL) of appropriate culture medium (100 µL per well). Before a general experiment, cells were attached for 24 h and then treated with various concentrations (500, 250, 100, and 10 µM) of pyrimidine derivatives and subsequently grown in 200 µL medium volume. […] The neutral red uptake assay was performed according to Repetto et al.. This method uses the ability of the living cells to accumulate dye in their lysosomes. […] Finally, the absorbance was measured at 540 nm using a Thermo Scientific™ Multiskan™ GO Microplate Spectrophotometer (Thermo Fisher).
(§3) The viability tests were conducted in quadruple wells (n = 4) for each condition. Values are presented as mean ± standard deviation (SD). Significant differences were calculated using one-way ANOVA, followed by post hoc comparison, and the half-maximal inhibitory concentration (IC50) was obtained by nonlinear regression using GraphPad Prism 9.1 for Windows, GraphPad Software, La Jolla, California, USA, www.graphpad.com.

Caco-2 = assay: Neutral red uptake assay, Caco-2; format: cell-based; details: Homo sapiens, 72 h incubation
Protocol: as §1, §2
The viability tests were conducted in quadruple wells (n = 4) for each condition. Values are presented as mean ± standard deviation (SD). Significant differences were calculated using one-way ANOVA, followed by post hoc comparison, and the half-maximal inhibitory concentration (IC50) was obtained by nonlinear regression using GraphPad Prism 9.1 for Windows, GraphPad Software, La Jolla, California, USA, www.graphpad.com. A p-value < 0.05 was considered statistically significant.

HeLa = assay: Neutral red uptake assay, HeLa; format: cell-based; details: Homo sapiens, 72 h incubation
Protocol: as §1, §2, §3

A172 = assay: Neutral red uptake assay, A172; format: cell-based; details: Homo sapiens, A 172, 72 h incubation
Protocol: as §1, §2, §3

AGS = assay: Neutral red uptake assay, AGS; format: cell-based; details: Homo sapiens, 72 h incubation
Protocol: as §1, §2, §3

Enterococcus faecalis = assay: Antimicrobial activity, broth microdilution MIC; format: cell-based; details: tested 256 to 0.5 µg mL^−1, 24 h, '-' not defined, no MIC in tested range, read-out: MIC E. faecalis
[2] = test system: methicillin-resistant Staphylococcus aureus (MRSA); assay: Antimicrobial activity, broth microdilution MIC; format: cell-based; details: tested 256 to 0.5 µg mL^−1, 24 h, '-' not defined, no MIC in tested range
Pseudomonas aeruginosa = assay: Antimicrobial activity, broth microdilution MIC; format: cell-based; details: tested 256 to 0.5 µg mL^−1, 24 h, '-' not defined, no MIC in tested range, read-out: MIC P. aeruginosa
Klebsiella pneumoniae = assay: Antimicrobial activity, broth microdilution MIC; format: cell-based; details: tested 256 to 0.5 µg mL^−1, 24 h, '-' not defined, no MIC in tested range, read-out: MIC K. pneumoniae
Escherichia coli = assay: Antimicrobial activity, broth microdilution MIC; format: cell-based; details: tested 256 to 0.5 µg mL^−1, 24 h, '-' not defined, no MIC in tested range
[3] = test system: normal human endothelial cells; design: method as in PMID 30284980; details: cited from earlier work
cancer cell lines = test system: cancer cell lines; design: method as in PMID 30284980; details: range depending on the cancer cell line; cited from earlier work
Candida albicans = assay: Antimicrobial activity, broth microdilution MIC; format: cell-based; details: tested 256 to 0.5 µg mL^−1, 24 h, '-' not defined, no MIC in tested range, read-out: MIC C. albicans

| Compound | melting point | IC50 (HepaRG; Homo sapiens, HepaRG, 72 h) | IC50 (Caco-2) | IC50 (HeLa) | IC50 (A172) | IC50 (AGS) | further results |
| --- | --- | --- | --- | --- | --- | --- | --- |
| Cc1nc(-c2ccccc2)nc(NC2CCCCC2)c1CO [Compound 3j, [4-(cyclohexylamino)-6-methyl-2-phenylpyrimidin-5-yl]methanol] | 143 °C | – | – | – | – | – | viability at 72 h, 10 µM [1]: 89%; viability at 72 h, 100 µM [1]: 28%; viability at 72 h, 250 µM [1]: 70%; viability at 72 h, 500 µM [1]: 16% |
| Cc1nc(-c2ccccc2)nc(NC(C)(C)C)c1CO [Compound 3h, [4-(tert-butylamino)-6-methyl-2-phenylpyrimidin-5-yl]methanol] | 173 to 174 °C | 132 µM | > 250 µM | > 250 µM | > 250 µM | > 250 µM | MIC (Acinetobacter baumannii): 256 µg/mL (≈ 943 µM); IC50 (HepaRG): 132 µM |
| C[C@H]1COc2c(N3CCN(C)CC3)c(F)cc3c(=O)c(C(=O)O)cn1c23 [Levofloxacin, reference compound] | – | – | – | – | – | – | MIC (Acinetobacter baumannii): 0.5 µg/mL (≈ 1.38 µM); MIC (Enterococcus faecalis): 4 µg/mL (≈ 11.1 µM); MIC [2]: 1 µg/mL (≈ 2.77 µM); MIC (Pseudomonas aeruginosa): 1 µg/mL (≈ 2.77 µM) |
| CCNc1nc(-c2ccccc2)nc(C)c1CO [Compound 3d, [4-(ethylamino)-6-methyl-2-phenylpyrimidin-5-yl]methanol] | 191 °C | > 250 µM | > 250 µM | > 250 µM | > 250 µM | > 250 µM | – |
| CCCNc1nc(-c2ccccc2)nc(C)c1CO [Compound 3e, [4-methyl-2-phenyl-6-(propylamino)pyrimidin-5-yl]methanol] | 158 to 159 °C | > 250 µM | > 250 µM | > 250 µM | > 250 µM | > 250 µM | MIC (Acinetobacter baumannii): 256 µg/mL (≈ 995 µM); MIC (Enterococcus faecalis): 256 µg/mL (≈ 995 µM) |
| CNC(C)C1CCC(N)C(OC2C(N)CC(N)C(OC3OCC(C)(O)C(NC)C3O)C2O)O1 (stereo not drawn) [Gentamicin, reference compound] | – | – | – | – | – | – | MIC (Klebsiella pneumoniae): 2 µg/mL (≈ 4.19 µM); MIC (Escherichia coli): 2 µg/mL (≈ 4.19 µM) |
| Cc1ccccc1CSc1nc(-c2ccccc2)nc(C)c1CO [Compound 3b, (4-methyl-6-{[(2-methylphenyl)methyl]sulfanyl}-2-phenylpyrimidin-5-yl)methanol] | 147 °C | – | – | – | – | – | viability at 72 h, 10 µM [1]: 91%; viability at 72 h, 100 µM [1]: 44%; viability at 72 h, 250 µM [1]: 46%; viability at 72 h, 500 µM [1]: 34% |
| C=CCNc1nc(-c2ccccc2)nc(C)c1CO [Compound 3f, {4-methyl-2-phenyl-6-[(prop-2-en-1-yl)amino]pyrimidin-5-yl}methanol] | 174 to 175 °C | > 250 µM | > 250 µM | > 250 µM | > 250 µM | > 250 µM | MIC [2]: 256 µg/mL (≈ 1000 µM) |
| Cc1nc(-c2ccccc2)nc(SCc2ccc(Cl)cc2)c1C [4-[(4-chlorobenzyl)sulfanyl]-5,6-dimethyl-2-phenylpyrimidine] | – | – | – | – | – | – | survival of normal human endothelial cells [3]: 58% |
| Cc1nc(-c2ccccc2)nc(SCc2ccc(Cl)cc2)c1CO [5-hydroxymethyl derivative] | – | – | – | – | – | – | survival of normal human endothelial cells [3]: 1%; IC50 (cancer cell lines): 17 to 38 µM |
| Cc1nc(-c2ccccc2)nc(N)c1CO [Compound 3c, (4-amino-6-methyl-2-phenylpyrimidin-5-yl)methanol] | 177 to 178 °C | > 250 µM | > 250 µM | > 250 µM | > 250 µM | > 250 µM | – |
| Cc1nc(-c2ccccc2)nc(SCc2ccccc2)c1CO [Compound 3a, [4-(benzylsulfanyl)-6-methyl-2-phenylpyrimidin-5-yl]methanol] | 144 to 145 °C | 201 µM | > 250 µM | > 250 µM | > 250 µM | 209 µM | MIC (Candida albicans): 256 µg/mL (≈ 794 µM) |
| Cc1nc(-c2ccccc2)nc(NCCO)c1CO [Compound 3i, 2-{[5-(hydroxymethyl)-6-methyl-2-phenylpyrimidin-4-yl]amino}ethan-1-ol] | 141 °C | > 250 µM | > 250 µM | > 250 µM | > 250 µM | > 250 µM | – |
| Cc1nc(-c2ccccc2)nc(NC(C)C)c1CO [Compound 3g, {4-methyl-2-phenyl-6-[(propan-2-yl)amino]pyrimidin-5-yl}methanol] | 160 °C | 183 µM | > 250 µM | 209 µM | 147 µM | > 250 µM | MIC (Acinetobacter baumannii): 256 µg/mL (≈ 995 µM); MIC (Escherichia coli): 128 µg/mL (≈ 497 µM) |
